By IC50 is commonly meant the concentration that inhibits the measured activity by half. For orientation: EC50 means the concentration giving half of the maximal effect.

Read-outs that look alike come from different tables or passages of the source.

In assay [1] the target is T1, HCV NS3/4A protease complex, BMS strain (genotype 1a) (UniProt P27958, species not given/STRAIN_BMS).
T1 construct: DNA encoding the recombinant HCV NS3/4A protease complex (amino acids 1027 to 1711) for these strains [given for H77 and J4L6S only]; These are given only for the H77 and J4L6S constructs
T1 sequence (P27958 1027-1657, stated change not applied, one chain of several): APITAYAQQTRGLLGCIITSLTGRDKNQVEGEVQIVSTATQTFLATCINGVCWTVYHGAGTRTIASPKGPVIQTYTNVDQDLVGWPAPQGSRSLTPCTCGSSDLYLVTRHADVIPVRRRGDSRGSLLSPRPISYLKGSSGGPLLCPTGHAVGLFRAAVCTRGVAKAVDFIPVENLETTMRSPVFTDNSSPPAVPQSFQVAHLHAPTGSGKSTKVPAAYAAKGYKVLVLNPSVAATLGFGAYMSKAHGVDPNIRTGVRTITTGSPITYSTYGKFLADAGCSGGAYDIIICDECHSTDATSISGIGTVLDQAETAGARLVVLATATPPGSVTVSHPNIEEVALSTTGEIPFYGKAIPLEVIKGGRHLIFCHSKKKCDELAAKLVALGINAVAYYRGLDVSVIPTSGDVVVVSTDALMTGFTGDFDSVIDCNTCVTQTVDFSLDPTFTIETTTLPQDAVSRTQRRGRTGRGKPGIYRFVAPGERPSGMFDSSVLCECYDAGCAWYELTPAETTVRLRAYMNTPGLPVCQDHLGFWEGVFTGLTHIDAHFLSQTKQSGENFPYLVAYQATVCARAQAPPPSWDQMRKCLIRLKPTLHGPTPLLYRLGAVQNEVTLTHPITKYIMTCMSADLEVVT
The assay can be described thus: FRET peptide assay to monitor HCV NS3/4A proteolytic activity (BMS strain). Type of assay: biochemical. Conditions: NS3/4A BMS strain, read-out: IC50 (range or value). The text has this:
HCV NS3 protease complexes, derived from the BMS strain, H77 strain or J4L6S strain, were generated, as described below. These purified recombinant proteins were generated for use in a homogeneous assay (see below) to provide an indication of how effective compounds of the present disclosure would be in inhibiting HCV NS3 proteolytic activity.
Serum from an HCV-infected patient was obtained from Dr. T. Wright, San Francisco Hospital. An engineered full-length cDNA (compliment deoxyribonucleic acid) template of the HCV genome (BMS strain) was constructed from DNA fragments obtained by reverse transcription-PCR (RT-PCR) of serum RNA (ribonucleic acid) and using primers selected on the basis of homology between other genotype 1a strains. From the determination of the entire genome sequence, a genotype 1a was assigned to the HCV isolate according to the classification of Simmonds et al. (See P Simmonds, K A Rose, S Graham, S W Chan, F McOmish, B C Dow, E A Follett, P L Yap and H Marsdeni, J. Clin. Microbiol., 31(6):1493-1503 (1993)). […] The infectious clones, H77 (1a genotype) and J4L6S (1b genotype) were obtained from R. Purcell (NIH) and the sequences are published in Genbank (AAB67036, see Yanagi, M., Purcell, R. H., Emerson, S. U. and Bukh, J. Proc. Natl. Acad. Sci. U.S.A. 94(16):8738-8743 (1997); AF054247, see Yanagi, M., St Claire, M., Shapiro, M., Emerson, S. U., Purcell, R. H. and Bukh, J, Virology 244 (1), 161-172. (1998)).
The H77 and J4L6S strains were used for production of recombinant NS3/4A protease complexes. DNA encoding the recombinant HCV NS3/4A protease complex (amino acids 1027 to 1711) for these strains were manipulated as described by P. Gallinari et al. (see Gallinari P, Paolini C, Breruian D, Nardi C, Steinlkuhler C, De Francesco R. Biochemistry. 38(17);5620-32, (1999)). Briefly, a three-lysine solubilizing tail was added at the 3′-end of the NS4A coding region. The cysteine in the P1 position of the NS4A-NS4B cleavage site (amino acid 1711) was changed to a glycine to avoid the proteolytic cleavage of the lysine tag. Furthermore, a cysteine to serine mutation was introduced by PCR at amino acid position 1454 to prevent the autolytic cleavage in the NS3 helicase domain. The variant DNA fragment was cloned in the pET21b bacterial expression vector (Novagen) and the NS3/4A complex was expressed in Escherichia. coli strain BL21 (DE3) (Invitrogen) following the protocol described by P. Gallinari et al. (see Gallinari P, Breinan D, Nardi C, Brunetti M, Tomei L, Steinkuhler C, De Francesco R., J Virol. 72(8):6758-69 (1998)) with modifications. Briefly, the NS3/4A protease complex expression was induced with 0.5 millimolar (mM) Isopropyl β-D-1-thiogalactopyranoside (IPTG) for 22 hours (h) at 20° C. A typical fermentation (1 Liter (L)) yielded approximately 10 grams (g) of wet cell paste. The cells were resuspended in lysis buffer (10 mL/g) consisting of 25 mM N-(2-Hydroxyethyl)Piperazine-N′-(2-Ethane Sulfonic acid) (HEPES), pH 7.5, 20% glycerol, 500 mM Sodium Chloride (NaCl), 0.5% Triton X-100, 1 microgram/milliliter (“μg/mL”) lysozyme, 5 mM Magnesium Chloride (MgCl2), 1 μg/ml DnaseI, 5mM β-Mercaptoethanol (βME), Protease inhibitor-Ethylenediamine Tetraacetic acid (EDTA) free (Roche), homogenized and incubated for 20 minutes (min) at 4° C. The homogenate was sonicated and clarified by ultra-centrifugation at 235000 g for 1 hour (h) at 4° C. Imidazole was added to the supernatant to a final concentration of 15 mM and the pH adjusted to 8.0. The crude protein extract was loaded on a Nickel-Nitrilotriacetic acid (Ni-NTA) column pre-equilibrated with buffer B (25 mM HEPES, pH 8.0, 20% glycerol, 500 mM NaCl, 0.5% Triton X-100, 15 mM imidazole, 5 mM βMB). The sample was loaded at a flow rate of 1 mL/min. The column was washed with 15 column volumes of buffer C (same as buffer B except with 0.2% Triton X-100). The protein was eluted with 5 column volumes of buffer D (same as buffer C except with 200 mM Imidazole). […]

For assay [2], the system named is HCV replicon (strain 1b) in HUH-7 cells. The assay can be described thus: HCV replicon FRET assay. Conditions: Hepatitis C virus, Huh-7, HCV replicon, read-out: EC50 (range or value). Format: cell-based. The text has this: An HCV replicon whole cell system was established as described by Lohmann V, Korner F, Koch J, Herian U, Theilmann L, Bartenschlager R., Science 285(5424):110-3 (1999). This system enabled us to evaluate the effects of our HCV Protease compounds on HCV RNA replication. Briefly, using the HCV strain 1b sequence described in the Lohmann paper (Assession number: AJ238799), an HCV cDNA was synthesized by Operon Technologies, Inc. (Alameda, Calif.), and the full-length replicon was then assembled in plasmid pGem9zf(+) (Promega, Madison, Wis.) using standard molecular biology techniques. The replicon consists of (i) the HCV 5′ UTR fused to the first 12 amino acids of the capsid protein, (ii) the neomycin phosphotransferase gene (neo), (iii) the IRES from encephalomyocarditis virus (EMCV), and (iv) HCV NS3 to NS5B genes and the HCV 3′ UTR. Plasmid DNAs were linearized with ScaI and RNA transcripts were synthesized in vitro using the T7 MegaScript transcription kit (Aibion, Austin, Tex.) according to manufacturer's directions. In vitro transcripts of the cDNA were transfected into the human hepatoma cell line, HUH-7. […] Resulting cell lines were characterized for positive and negative strand RNA production and protein production over time.
The HCV replicon FRET assay was developed to monitor the inhibitory effects of compounds described in the disclosure on NCV viral replication. HUH-7 cells, constitutively expressing the HCV replicon, were grown in Dulbecco's Modified Eagle Media (DMEM) (Gibco-BRL) containing 10% Fetal calf serum (FCS) (Sigma) and 1 mg/ml G418 (Gibco-BRL). Cells were seeded the night before (1.5×10^4 cells/well) in 96-well tissue-culture sterile plates. Compound and no compound controls were prepared in DMEM containing 4% FCS, 1:100 Penicillin/Streptomysin (Gibco-BRL), 1:100 L-glutamine and 5% DMSO in the dilution plate (0.5% DMSO final concentration in the assay). Compound/DMSO mixes were added to the cells and incubated for 4 days at 37° C. After 4 days, cells were first assessed for cytotoxicity using alamar Blue (Trek Diagnotstic Systems) for a CC50 reading. The toxicity of compound (CC50) was determined by adding 1/10th volume of alamar Blue to the media incubating the cells. After 4 h, the fluorescence signal from each well was read, with an excitation wavelength at 530 nm and an emission wavelength of 580 nm, using the Cytofluor Series 4000 (Perspective Biosystems). Plates were then rinsed thoroughly with Phosphate-Buffered Saline (PBS) (3 times 150 μl).
(In general: In antiviral work, replicon cells carry a viral genome segment that copies itself.)

Consider `C=C[C@@H]1C[C@]1(NC(=O)[C@@H]1C[C@@H](Oc2cc(-c3cccs3)cc(-c3ccccc3)n2)CN1C(=O)C(Nc1cc(C)cc(C)n1)C(C)C)C(=O)NS(=O)(=O)C1CC1` (single isomer, unassigned) [Compound 1A], for which, in assay [1] (value), the IC50 was determined as 14 nM. Further, the EC50 in assay [2] (value) stood at 65.3 nM.

For `C=C[C@@H]1C[C@]1(NC(=O)[C@@H]1C[C@@H](Oc2cc(-c3cccs3)cc(-c3ccccc3)n2)CN1C(=O)C(Nc1cc(C)cc(C)n1)C(C)C)C(=O)NS(=O)(=O)C1CC1` (single isomer, unassigned) [Compound 1B], in assay [1] (activity range), the IC50 fell in the range of 20 to 200 nM. Moreover, in assay [2] (activity range), the EC50 fell in the range of 100 to 1000 nM.

`C=C[C@@H]1C[C@]1(NC(=O)[C@@H]1C[C@@H](OC(=O)N2Cc3cccc(F)c3C2)CN1C(=O)C(Nc1cc(C)cc(C)n1)C(C)C)C(=O)NS(=O)(=O)C1CC1` (single isomer, unassigned) [Compound 2B]: in assay [1] (value), the IC50 was determined as 135 nM. The EC50 in assay [2] (value) stood at 3480 nM.

`C=C[C@@H]1C[C@]1(NC(=O)C1CC(Oc2cc(-c3ccccc3)nc3cc(OC)ccc23)CN1C(=O)[C@@H](Nc1nc(CC)cs1)C(C)(C)C)C(=O)NS(=O)(=O)C1CC1` (stereo partly drawn) [Compound 3]: the IC50 in assay [1] (value) is 4.55 nM. Also, in assay [2] (value), the EC50 was 14.6 nM.

Regarding `C=C[C@@H]1C[C@]1(NC(=O)C1CC(Oc2cc(-c3ccccc3)nc3cc(OC)ccc23)CN1C(=O)[C@@H](Nc1nc(C(C)(C)C)cs1)C(C)(C)C)C(=O)NS(=O)(=O)C1CC1` (stereo partly drawn) [Compound 4], the IC50 in assay [1] (activity range) lay within 4 to 20 nM. In addition, the EC50 in assay [2] (activity range) was 14 to 100 nM.

Regarding `C=C[C@@H]1C[C@]1(NC(=O)C1CC(Oc2cc(-c3ccccc3)nc3cc(OC)ccc23)CN1C(=O)[C@@H](Nc1nc(C(F)(F)F)cs1)C(C)(C)C)C(=O)NS(=O)(=O)C1CC1` (stereo partly drawn) [Compound 5], in assay [1] (activity range), the IC50 lay within 4 to 20 nM. In assay [2] (activity range), the EC50 was 14 to 100 nM.
